{"source": "patent US7459481B2", "about": "“Stimulation of CPT-1 as a means to reduce weight” (The Johns Hopkins University School of Medicine Licensing …, priority 2002, dated 2008)", "key": {"[1]": {"test_system": "MCF-7 cells", "experiment": "Fatty acid oxidation ([1-14C]palmitate to 14CO2) in MCF-7 cells", "format": "cell-based, human", "description": "Human breast cancer cell line MCF-7 was obtained from the American Type Culture Collection. 1×10^6 MCF-7 cells were plated in T-25 flasks in triplicate and incubated overnight at 37° C. Drugs were then added as indicated diluted from 5 mg/ml stock in DMSO. After 2 hours, medium with drugs was removed and cells were preincubated for 30 min. with 1.5 ml of the following buffer: 114 mM NaCl, 4.7 mM KCl, 1.2 mM KH2PO4, 1.2 mM MgSO4, glucose 11 mM. After preincubation, 200 μl of assay buffer was added containing: 114 mM NaCl, 4.7 mM KCl, 1.2 mM KH2PO4, 1.2 mM MgSO4, glucose 11 mM, 2.5 mM palmitate (containing with 10 μCi of [1-^14C]palmitate) bound to albumin, 0.8 mM L-carnitine, and cells were incubated at 37° C. for 2 h. Following the incubation, 400 μl of benzethonium hydrochloride was added to the center well to collect released ^14CO2. Immediately, the reaction was stopped by adding 500 μl of 7% perchloric acid to the cells. The flasks with wells were then incubated for 2 h at 37° C. after which the benzothonium hydrochloride was removed and counted for ^14C. Blanks were prepared by adding 500 μl of 7% perchloric acid to the cells prior to the incubation with the assay buffer for 2 h.\n(§1) FAS activity was measured by monitoring the malonyl-CoA dependent oxidation of NADPH spectrophotometrically at OD340 in 96-well plates, as described in International Patent Publication WO 2004/005277. The IC50 for the compounds against FAS was determined by plotting the change in OD340 against time for each inhibitor concentration tested and determining the rate of change by linear regression. The concentration of a particular compound yielding 50% inhibition of the rate for FAS in the absence of the compound is the IC50. Stimulation of CPT-1 activity was measured as described in Example 2, except the cells were preincubated with the compound for 2 hours at the concentrations indicated in the table. Stimulation of Fatty acid oxidation was determined as described in Example 1 for cells preincubated with the compounds at the concentrations indicated in the table."}, "[2]": {"target": "T1, CPT-1 (Homo sapiens, UniProt P50416)", "T1 construct": "endogenous in cells; host or cells: MCF-7 human breast cancer cells", "T1 sequence (P50416 1-773)": "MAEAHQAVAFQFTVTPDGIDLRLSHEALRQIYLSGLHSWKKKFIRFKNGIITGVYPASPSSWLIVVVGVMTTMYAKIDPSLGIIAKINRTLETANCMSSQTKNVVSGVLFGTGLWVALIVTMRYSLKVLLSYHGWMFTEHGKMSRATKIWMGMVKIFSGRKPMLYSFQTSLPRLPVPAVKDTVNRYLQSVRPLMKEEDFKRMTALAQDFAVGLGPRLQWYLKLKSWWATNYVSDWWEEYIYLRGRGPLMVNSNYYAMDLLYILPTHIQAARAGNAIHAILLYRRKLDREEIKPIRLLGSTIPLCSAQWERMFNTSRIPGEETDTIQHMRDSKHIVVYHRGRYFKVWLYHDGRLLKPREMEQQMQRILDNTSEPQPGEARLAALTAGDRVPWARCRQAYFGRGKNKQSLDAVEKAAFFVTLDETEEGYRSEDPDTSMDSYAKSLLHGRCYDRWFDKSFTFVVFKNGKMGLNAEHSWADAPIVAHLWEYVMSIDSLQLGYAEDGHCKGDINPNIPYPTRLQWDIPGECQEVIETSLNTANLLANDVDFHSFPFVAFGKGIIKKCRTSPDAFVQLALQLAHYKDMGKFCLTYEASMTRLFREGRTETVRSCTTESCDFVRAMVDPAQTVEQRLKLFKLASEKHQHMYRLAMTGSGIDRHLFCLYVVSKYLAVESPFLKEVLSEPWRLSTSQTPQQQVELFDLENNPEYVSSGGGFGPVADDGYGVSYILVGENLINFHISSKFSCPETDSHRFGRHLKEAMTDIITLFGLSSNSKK", "experiment": "CPT-1 activity assay in MCF-7 cells", "format": "cell-based", "description": "CPT-1 activity was assayed in MCF-7 cells by the following published procedure: MCF-7 cells were plated in DMEM with 10% fetal bovine serum at 10^6 cells in 24-well plates in triplicate. Following overnight incubation at 37° C., the medium was removed and replaced with 700 μl of assay medium consisting of: 50 mM imidazole, 70 mM KCl, 80 mM sucrose, 1 mM EGTA, 2 mM MgCl2, 1 mM DTT, 1 mM KCN, 1 mM ATP, 0.1% fatty acid free bovine serum albumin, 70 μM palmitoyl-CoA, 0.25 μCi [methyl-^14C]L-carnitine, 40 μg digitonin with or without 20 μM malonyl-CoA. After incubation for 6 minutes at 37° C., the reaction was stopped by the addition of 500 μl of ice-cold 4 M perchloric acid. Cells were then harvested and centrifuged at 13,000×g for 5 min. The pellet was washed with 500 μl ice cold 2 mM perchloric acid and centrifuged again. The resulting pellet was resuspended in 800 μl dH2O and extracted with 150 μl of butanol. The butanol phase was counted by liquid scintillation and represents the acylcarnitine derivative.\nMCF-7 cells were treated with C75 at 10 or 20 μg/mL for 1 hr before CPT-1 activity was assayed. The assay was performed with the C75 and malonyl-CoA concentrations indicated (“M” indicates malonyl-CoA at 20 uM). Malonyl-CoA treatment alone caused a 46% reduction in CPT-1 activity similar to the previous experiment (see FIG. 2; p=0.02, two-tailed t-test, Prism 3.0). The level of malonyl-CoA inhibition of the CPT-1 activity is consistent with the activity of the liver isoform of CPT-1 in MCF-7 cells. The Ki of malonyl-CoA for the liver isoform of CPT-1 is ˜7 μM while the Ki for the muscle isoform of CPT-1 is 0.07 μM. Thus, MCF-7 cells express predominantly the liver isoform of CPT-1 (consistent with the immunoblot analysis).\nas §1"}, "[3]": {"test_system": "MCF-7 cells", "settings": "cited from earlier work"}}}
{"smiles": "C=C1C(=O)OC(CCCCCCCC)C1C(=O)O", "note": "(stereo not shown) [Compound C75]", "values": [{"measurement": "Fatty Acid Oxidation (% Control)", "setting": "[1]; 10 μg/mL", "result": 400, "unit": "% Control"}, {"measurement": "effect on fatty acid oxidation", "setting": "[1]; MCF-7, doses from 5-20 μg/ml", "result": "increased fatty acid oxidation"}, {"measurement": "increase in fatty acid oxidation compared to the control", "setting": "[1]; MCF-7, treated 2 hours before measurement, FIG. 1", "result": 156, "unit": "%"}, {"measurement": "CPT-1 Stimulation (% Control)", "setting": "[2]; 20 μg/mL, cells preincubated 2 hours", "result": 125, "unit": "% Control"}, {"measurement": "CPT-1 activity, % of control", "setting": "[2]; MCF-7, 20 μg/ml 1 hr before assay, FIG. 4", "result": "166 % of control"}, {"measurement": "CPT-1 activity, % of control", "setting": "[2]; MCF-7, 20 μg/ml for one hour before assay, no C75 in the assay buffer, FIG. 3", "result": "158 % of control"}, {"measurement": "CPT-1 stimulation after C75 removed from buffer and malonyl-CoA 20 μM added", "setting": "[2]; MCF-7, C75 20 μg/ml one hour pretreatment, FIG. 3", "result": "stimulatory activity is lost"}, {"measurement": "difference in CPT-1 activity between C75 and C75 plus malonyl-CoA", "setting": "[2]; MCF-7, C75 10 or 20 μg/mL 1 hr, malonyl-CoA 20 uM, FIG. 2", "result": "no statistically significant difference"}, {"measurement": "stimulated CPT-I activity", "setting": "[2]; MCF-7 cells in vitro", "result": "150-160%"}, {"measurement": "increase in malonyl-CoA", "setting": "[3]", "result": "> 5", "unit": "fold"}]}
